This is an account of results in ChEMBL document CHEMBL4715696, “In vitro synergistic anticancer activity of the combination of T-type calcium channel blocker and chemotherapeutic agent in A549 cells” (Bioorg Med Chem Lett, 2016).

Molecules are shown by their SMILES.

The assay deals with A549. Kind of assay: Decrease in cell cycle associated protein expression in human A549 cells assessed as reduction in cyclin D3 expression at 10 uM by Western blot analysis. The format is functional, cell-based. The conditions noted are these: time 6-48 hrs, TDE = time-dependent effect. Background: Immunoblotting shows a protein as a band on a membrane.

Consider `CN(C)C(=O)NCCCN(C)C1=Nc2ccccc2C(CC(=O)NCc2ccc(F)cc2)N1c1ccc(C2CCCCC2)cc1` (stereo unspecified), for which the Activity result was “Tde”.
